Laboratory results reported in ChEMBL document CHEMBL2375293, “Identification of benzofurano[3,2-d]pyrimidin-2-ones, a new series of HIV-1 nucleotide-competing reverse transcriptase inhibitors” (Bioorg Med Chem Lett, 2013).
In brackets after ≈: the same amount, converted by molar mass.

How the values were obtained:
[1] = Inhibition of HIV1 BH10 reverse transcriptase using poly(rA)/oligo(dT)15 as substrate after 60 mins by fluorescence assay; set-up: species or system Human immunodeficiency virus type 1 BH10
[2] = Antiviral activity against wild type HIV1 BH10 infected in human C8166 cells after 3 days by luciferase reporter gene assay; format: functional, cell-based, Human immunodeficiency virus type 1 BH10; settings: Human immunodeficiency virus 1, C8166, 72 h
[3] = Cytotoxicity against human C8166 cells assessed as inhibition of cell viability after 3 days by MTT assay; format: cell-based
[4] = Cytotoxicity against human C8166 cells assessed as inhibition of cell viability at CC50 after 3 days by MTT assay; format: cell-based; settings: read-out: INH
[5] = test system: Human immunodeficiency virus type 1 BH10; assay: Selectivity ratio of EC50 for HIV1 BH10 harboring reverse transcriptase M184V mutant to EC50 for wild type HIV1 BH10; format: functional
[6] = test system: Human immunodeficiency virus type 1 BH10; assay: Selectivity ratio of EC50 for HIV1 BH10 harboring reverse transcriptase Y115F/M184V double mutant to EC50 for wild type HIV1 BH10; format: functional
[7] = Half life in human liver microsomes at 1 uM by LC-MS/MS analysis; format: ADME, Microsome
[8] = Solubility of the compound in phosphate buffer at pH 6.8 after 24 hrs by LC-MS analysis; format: physicochemical
[9] = Apparent permeability across human Caco2 cells at 10 uM by LC-MS/MS analysis; format: ADME, cell-based; settings: Caco-2
[10] = Ratio of EC50 for wild type HIV1 BH10 infected in human C8166 cells in presence of serum to EC50 for wild type HIV1 BH10 infected in human C8166 cells in absence of serum; format: functional, Human immunodeficiency virus type 1 BH10
[11] = test system: Human immunodeficiency virus type 1 BH10; assay: Selectivity ratio of EC50 for HIV1 BH10 harboring reverse transcriptase K65R mutant to EC50 for wild type HIV1 BH10; format: functional
[12] = n-Octanol-phosphate buffer partition coefficient, log D of the compound at 0.5 mg after 24 hrs by LC-MS analysis; format: physicochemical
[13] = Ratio of CC50 for human C8166 cells to EC50 for wild type HIV1 BH10 infected in human C8166 cells
[14] = test system: Human immunodeficiency virus type 1 BH10; assay: Selectivity ratio of EC50 for HIV1 BH10 harboring reverse transcriptase K103N/Y181C double mutant to EC50 for wild type HIV1 BH10; format: functional
[15] = Solubility of the compound in phosphate buffer at pH 2 after 24 hrs by LC-MS analysis; format: physicochemical
[16] = Half life in Sprague-Dawley rat liver microsomes at 1 uM by LC-MS/MS analysis; format: ADME, Microsome
[17] = test system: Human immunodeficiency virus type 1 BH10; assay: Selectivity ratio of EC50 for HIV1 BH10 harboring reverse transcriptase Y115F mutant to EC50 for wild type HIV1 BH10; format: functional

| Structure (SMILES) | IC50 [1] [nM] | EC50 [2] [nM] | CC50 at 72 h [3] [nM] | other results |
| --- | --- | --- | --- | --- |
| COCCn1c(=O)nc(-c2ccc(NC(=O)C(C)N(C)C)cc2)c2oc3ccccc3c21 (centres undefined) | 1400 | 4400 | > 11000 | cytotoxicity at 72 h [4]: 14% |
| COCCn1c(=O)nc(-c2ccc(OCCN(C)C)cc2)c2oc3ccccc3c21 | 630 | 14000 | – | – |
| COCCn1c(=O)nc(-c2cnc(N3CCN(C)CC3)nc2)c2oc3ccccc3c21 | 155 | 690 | > 9500 | cytotoxicity at 72 h [4]: 40% |
| O=c1nc(-c2ccccc2)c2oc3ccccc3c2n1CCN1CCCC1 | 4200 | 11000 | 18000 | – |
| COCCn1c(=O)nc(-c2ccc(NCCN3CCCC3)cc2)c2oc3ccccc3c21 | 120 | 2400 | > 7400 | – |
| O=c1nc(-c2ccccc2)c2oc3ccc(Cl)cc3c2n1CCN1CCCC1 | 590 | 3700 | > 7300 | cytotoxicity at 72 h [4]: 6% |
| NC(=O)C1CCCN1CCn1c(=O)nc(-c2ccccc2)c2oc3ccc(Cl)cc3c21 (centres undefined) | 650 | 2600 | > 6700 | – |
| COCCn1c(=O)nc(-c2ccc(NC(=O)CN3CCCC3)cc2)c2oc3ccccc3c21 | 390 | 1100 | 5950 | – |
| COCCn1c(=O)nc(-c2ccc(C(=O)NCCN(C)C)cc2)c2oc3ccccc3c21 | 945 | > 9300 | – | – |
| COCCn1c(=O)nc(-c2ccc(COCCN(C)C)cc2)c2oc3ccccc3c21 | 818 | > 11000 | – | – |
| CNC1CCN(c2ccc(-c3nc(=O)n(CCOC)c4c3oc3ccc(Cl)cc34)cn2)C1 (centres undefined) | 40 | 210 | 4300 | – |
| CCNCC(=O)Nc1ccc(-c2nc(=O)n(CCOC)c3c2oc2ccc(-c4cccnc4)cc23)cc1 | 27 | 200 | > 5100 | cytotoxicity at 72 h [4]: 33% |
| CCNCC(=O)Nc1ccc(-c2nc(=O)n(CCOC)c3c2oc2ccccc23)cc1 | 73 | 680 | 5100 | – |
| CNCCNc1ccc(-c2nc(=O)n(CCOC)c3c2oc2ccc(Cl)cc23)cc1 | 10 | 87 | 960 | – |
| O=c1nc(-c2ccccc2)c2oc3ccccc3c2n1CCN1CCOCC1 | > 26000 | – | – | – |
| COCCn1c(=O)nc(-c2ccc(N3CCN(C)CC3)cc2)c2oc3ccc(Cl)cc3c21 | 24 | 430 | > 4500 | cytotoxicity at 72 h [4]: 18% |
| COCCn1c(=O)nc(-c2ccc(N3CCNCC3)cc2)c2oc3ccc(Cl)cc3c21 | 10 | 175 | 2700 | – |

| Structure (SMILES) | IC50 [1] [nM] | EC50 [2] [nM] | CC50 at 72 h [3] [nM] | other results |
| --- | --- | --- | --- | --- |
| CCNCc1nc2cc(-c3nc(=O)n(CCOC)c4c3oc3ccc(Br)cc34)ccc2n1C | 42 | 540 | > 4400 | cytotoxicity at 72 h [4]: 20% |
| CCNCC(=O)Nc1ccc(-c2nc(=O)n(CCOC)c3c2oc2ccc(-c4ccccc4)cc23)cc1 | 33 | 360 | 2300 | – |
| CN(C)CC(=O)Nc1ccc(-c2nc(=O)n(C)c3c2oc2ccccc23)cc1 | 3100 | 1600 | 7700 | – |
| CCNCC(=O)Nc1ccc(-c2nc(=O)n(CCOC)c3c2oc2cc(-c4ccc(CN(C)C)cc4)ccc23)cc1 | 7.4 | 53 | 1000 | – |
| O=c1nc(-c2ccccc2)c2oc3ccc(Cl)cc3c2n1CCN1CCOCC1 | 6500 | – | – | – |
| CN1CCc2cc(-c3ccc4oc5c(-c6ccccc6)nc(=O)n(CCN6CCC(F)(F)C6)c5c4c3)ccc2C1 | 20 | 25 | – | Ratio EC50 [5]: 4.8; Ratio EC50 [6]: 14.8; half-life at 1 µM [7]: 0.317 h; solubility at 24 h [8]: < 0.1 µg/mL; Papp at 10 µM [9]: 0.55 ×10⁻⁶ cm/s; Ratio EC50 [10]: 7.3; Ratio EC50 [11]: 0.3; logD at 24 h [12]: 3.9; Ratio CC50/EC50 [13]: >46; Ratio EC50 [14]: 1.7; solubility at 24 h [15]: > 1000 µg/mL; half-life at 1 µM [16]: 0.1 h |
| COCCn1c(=O)nc(-c2ccc(NC(=O)CN(C)C)cc2)c2oc3ccccc3c21 | 1200 | 3600 | > 11000 | cytotoxicity at 72 h [4]: 15% |
| CCNCC(=O)Nc1ccc(-c2nc(=O)n(CCOC)c3c2oc2ccc(-c4ccc5c(c4)CCN(C)C5)cc23)cc1 | 4.2 | 30 | 4800 | Ratio EC50 [5]: 1.1; Ratio EC50 [6]: 3.3; half-life at 1 µM [7]: 1.55 h; solubility at 24 h [8]: 650 µg/mL (≈ 1150 µM); Papp at 10 µM [9]: < 0.1 ×10⁻⁶ cm/s; Ratio EC50 [10]: 1.5; Ratio EC50 [11]: 0.1; logD at 24 h [12]: 2.4; Ratio EC50 [17]: 2; Ratio CC50/EC50 [13]: 137; Ratio EC50 [14]: 1.1; solubility at 24 h [15]: > 822 µg/mL; half-life at 1 µM [16]: 2.33 h |
| CCNCC(=O)Nc1ccc(-c2nc(=O)n(CCOC)c3c2oc2ccc(Cl)cc23)cc1 | 46 | 550 | 3000 | – |
| COCCn1c(=O)nc(-c2ccnc(N3CCN(C)CC3)c2)c2oc3ccc(Br)cc3c21 | > 5000 | – | – | – |
| CCNCC(=O)Nc1ccc(-c2nc(=O)n(CCOC)c3c2oc2cc(-c4ccc5c(c4)CCN(C)C5)ccc23)cc1 | 8.6 | 88 | 2100 | – |
| CCNCC(=O)Nc1ccc(-c2nc(=O)n(CCOC)c3c2oc2ccc(-c4ccc(CN(C)C)cc4)cc23)cc1 | 12 | 94 | 3900 | – |
| CN1CCc2cc(-c3ccc4oc5c(-c6ccccc6)nc(=O)n(CCN6CCCC6C(N)=O)c5c4c3)ccc2C1 (centres undefined) | 5.9 | 52 | – | Ratio EC50 [5]: 5.8; Ratio EC50 [6]: 14.2; half-life at 1 µM [7]: 1.22 h; solubility at 24 h [8]: 725 µg/mL (≈ 1320 µM); Papp at 10 µM [9]: 0.17 ×10⁻⁶ cm/s; Ratio EC50 [10]: 8.4; Ratio EC50 [11]: 0.3; logD at 24 h [12]: 3; Ratio CC50/EC50 [13]: >127; Ratio EC50 [14]: 1.7; solubility at 24 h [15]: 781 µg/mL (≈ 1430 µM); half-life at 1 µM [16]: 1 h |
| COCCn1c(=O)nc(-c2ccc(N3CCN(C)CC3)nc2)c2oc3ccc(Cl)cc3c21 | 75 | 890 | > 5800 | cytotoxicity at 72 h [4]: 37% |
| O=c1nc(-c2ccccc2)c2oc3ccc(Cl)cc3c2n1CCN1CCC(F)(F)C1 | 320 | 2900 | > 4500 | – |
| Cn1c(=O)nc(-c2ccccc2)c2oc3ccccc3c21 | > 83000 | – | – | – |
| CCNCC(=O)Nc1ccc(-c2nc(=O)n(CCOC)c3c2oc2ccc(-c4ccc(CO)cc4)cc23)cc1 | 34 | 300 | > 1300 | – |
